Legend:
[1] = target: T1, human sphingosine-1-phosphate receptor 1 (S1P1) (Homo sapiens (Human), UniProt P21453); experiment: Inhibition of cAMP production (HTRF cAMP HiRange), S1P1 CHO-K1 cells; type: cell-based; details: for Emax: CHO-K1, efficacy (SPAN) normalized to fingolimod, read-out: hS1P1 cAMP SPAN
How it was run: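 CHO-K1 cells stably co-expressing human S1P1 (C-terminal Prolink tag) and EA-β-arrestin2 were grown in AssayComplete Media 6 at 37° C. and 5% CO2, plated, and incubated overnight. Agonist-driven inhibition of intracellular cAMP was read by TR-FRET with the HTRF cAMP HiRange kit on a PheraStar reader. Potency is pEC50, and efficacy (SPAN) is normalized to fingolimod.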
Target sequence in this assay (P21453 whole entry, looked up): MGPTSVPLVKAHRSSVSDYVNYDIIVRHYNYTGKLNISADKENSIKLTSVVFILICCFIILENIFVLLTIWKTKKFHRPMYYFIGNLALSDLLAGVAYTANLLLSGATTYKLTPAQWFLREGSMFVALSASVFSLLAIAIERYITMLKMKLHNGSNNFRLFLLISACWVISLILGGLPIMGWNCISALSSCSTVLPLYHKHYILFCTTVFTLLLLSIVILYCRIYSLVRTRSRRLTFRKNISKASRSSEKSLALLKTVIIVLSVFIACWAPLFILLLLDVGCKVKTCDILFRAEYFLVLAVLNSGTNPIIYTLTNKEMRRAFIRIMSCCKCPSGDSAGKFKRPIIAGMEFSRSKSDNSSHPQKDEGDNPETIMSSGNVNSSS

[2] = target: T1, human sphingosine-1-phosphate receptor 1 (S1P1); experiment: β-Arrestin2 recruitment assay (PathHunter), S1P1 CHO-K1 cells; type: cell-based; details: for Emax: CHO-K1, efficacy (SPAN) normalized to fingolimod, read-out: hS1P1 B-arrestin2 SPAN
How it was run: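 Enzyme-fragment complementation read-out: agonist-driven β-arrestin2 binding to ProLink-tagged human S1P1 in stable CHO-K1 cells restores β-galactosidase, measured 1 h at room temperature after a 60 min 37° C. compound incubation. Potency as pEC50, efficacy relative to fingolimod (SPAN).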
Target sequence in this assay (P21453 whole entry, looked up): as above
Target sequence in this assay (P32121 whole entry partner, looked up): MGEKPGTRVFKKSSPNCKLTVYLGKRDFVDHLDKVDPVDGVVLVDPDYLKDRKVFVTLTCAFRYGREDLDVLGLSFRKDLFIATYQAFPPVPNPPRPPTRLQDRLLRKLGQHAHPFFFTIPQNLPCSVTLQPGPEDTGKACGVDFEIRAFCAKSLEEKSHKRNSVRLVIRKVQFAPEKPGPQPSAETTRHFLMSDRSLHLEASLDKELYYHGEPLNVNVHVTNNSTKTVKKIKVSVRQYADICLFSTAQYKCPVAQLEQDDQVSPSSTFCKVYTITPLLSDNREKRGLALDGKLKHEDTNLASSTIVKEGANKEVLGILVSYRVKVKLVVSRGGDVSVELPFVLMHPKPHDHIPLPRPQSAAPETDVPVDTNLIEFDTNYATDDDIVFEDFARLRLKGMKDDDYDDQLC

[3] = inhibition of cAMP production, S1P1 CHO-K1 cells
[4] = β-arrestin2 recruitment, S1P1 CHO-K1 cells

Cc1oc(-c2ccc3c(c2)nnn3C(C)C)nc1-c1ccccc1 [Compound 247, 5-(5-methyl-4-phenyl-1,3-oxazol-2-yl)-1-(propan-2-yl)-1H-1,2,3-benzotriazole]
Emax [1]: < 75% | hS1P1 cAMP pEC50 [1, 3]: <6.5 | Emax [2]: < 75% | hS1P1 B-arrestin2 pEC50 [2, 4]: <5

CC(C)n1nnc2cc(-c3noc(-c4ccc(-c5ccccc5)cc4)n3)ccc21 [Compound 248, 5-([1,1′-biphenyl]-4-yl)-3-(1-isopropyl-1H-benzo[d][1,2,3]triazol-5-yl)-1,2,4-oxadiazole]
hS1P1 cAMP pEC50 [1, 3]: <6.5 | hS1P1 B-arrestin2 pEC50 [2, 4]: <5

CC(C)n1nnc2cc(-c3nc(-c4cncnc4)no3)ccc21 [Compound 249, 1-(propan-2-yl)-5-[3-(pyrimidin-5-yl)-1,2,4-oxadiazol-5-yl]-1H-1,2,3-benzotriazole]
hS1P1 cAMP pEC50 [1, 3]: <6.5 | hS1P1 B-arrestin2 pEC50 [2, 4]: <5

COc1ccc(-c2coc(-c3ccc4c(c3)nnn4C(C)C)n2)cc1 [Compound 250, 5-[4-(4-methoxyphenyl)-1,3-oxazol-2-yl]-1-(propan-2-yl)-1H-1,2,3-benzotriazole]
Emax [1]: < 75% | hS1P1 cAMP pEC50 [1, 3]: <6.5 | Emax [2]: < 75% | hS1P1 B-arrestin2 pEC50 [2, 4]: <5

COc1cccc(OC)c1-c1noc(-c2ccc3c(c2)nnn3C(C)C)n1 [Compound 251, 3-(2,6-dimethoxyphenyl)-5-(1-isopropylbenzotriazol-5-yl)-1,2,4-oxadiazole]
Emax [1]: < 75% | hS1P1 cAMP pEC50 [1, 3]: <6.5 | Emax [2]: < 75% | hS1P1 B-arrestin2 pEC50 [2, 4]: <5

Cc1ccsc1-c1noc(-c2ccc3c(c2)nnn3C(C)(C)C)n1 [Compound 253, 1-tert-butyl-5-[3-(3-methylthiophen-2-yl)-1,2,4-oxadiazol-5-yl]-1H-1,2,3-benzotriazole]
Emax [1]: > 75% | EC50 ([1]; inhibition of cAMP production, S1P1 CHO-K1 cells, read-out: hS1P1 cAMP pEC50 (converted)): < 0.316 µM | Emax [2]: > 75% | EC50 ([2]; β-arrestin2 recruitment, S1P1 CHO-K1 cells, read-out: hS1P1 B-arrestin2 pEC50 (converted)): < 10 µM

CC1(C)CCC2(CC1)CC(=O)c1cc(-c3nc(-c4ccncc4)no3)ccc1O2 [Compound 254, 4′,4′-dimethyl-6-[3-(pyridin-4-yl)-1,2,4-oxadiazol-5-yl]-3,4-dihydrospiro[1-benzopyran-2,1′-cyclohexane]-4-one]
Emax [1]: < 75% | hS1P1 cAMP pEC50 [1, 3]: >6.5 | Emax [2]: < 75% | hS1P1 B-arrestin2 pEC50 [2, 4]: <5

CC(C)n1nnc2cc(-c3noc(-c4ccc(F)cc4)n3)ccc21 [Compound 255, 5-(4-fluorophenyl)-3-(1-isopropylbenzotriazol-5-yl)-1,2,4-oxadiazole]
Emax [1]: < 75% | hS1P1 cAMP pEC50 [1, 3]: <6.5 | Emax [2]: < 75% | hS1P1 B-arrestin2 pEC50 [2, 4]: <5

CCC1(CC)CC(=O)c2cc(-c3nc(-c4ccc(N)cc4)no3)ccc2O1 [Compound 256, 6-(3-(4-aminophenyl)-1,2,4-oxadiazol-5-yl)-2,2-diethylchroman-4-one]
Emax [1]: > 75% | hS1P1 cAMP pEC50 [1, 3]: >6.5 | Emax [2]: > 75% | hS1P1 B-arrestin2 pEC50 [2, 4]: >5

CCC1(CC)CC(=O)c2cc(-c3nc(-c4ccccc4OC)ns3)ccc2O1 [Compound 257, 2,2-diethyl-6-(3-(2-methoxyphenyl)-1,2,4-thiadiazol-5-yl)chroman-4-one]
hS1P1 cAMP pEC50 [1, 3]: <6.5 | hS1P1 B-arrestin2 pEC50 [2, 4]: <5

CCC1(CC)CC(=O)c2cc(-c3nc(-c4cccnc4O)no3)ccc2O1 [Compound 258, 2,2-diethyl-6-(3-(2-hydroxypyridin-3-yl)-1,2,4-oxadiazol-5-yl)chroman-4-one]
hS1P1 cAMP pEC50 [1, 3]: <6.5 | hS1P1 B-arrestin2 pEC50 [2, 4]: <5

COc1cccc(F)c1-c1noc(-c2ccc3c(c2)nnn3C(C)C)n1 [Compound 260, 3-(2-fluoro-6-methoxy-phenyl)-5-(1-isopropylbenzotriazol-5-yl)-1,2,4-oxadiazole]
Emax [1]: > 75% | hS1P1 cAMP pEC50 [1, 3]: <6.5 | Emax [2]: > 75% | hS1P1 B-arrestin2 pEC50 [2, 4]: <5

CCC1(CC)CC(=O)c2cc(-c3nc(-c4cccc(Cl)c4)no3)ccc2O1 [Compound 261, 6-[3-(3-chlorophenyl)-1,2,4-oxadiazol-5-yl]-2,2-diethyl-chroman-4-one]
hS1P1 cAMP pEC50 [1, 3]: <6.5 | hS1P1 B-arrestin2 pEC50 [2, 4]: >5

Cc1ccncc1-c1noc(-c2ccc3nnn(C(C)C)c3c2)n1 [Compound 264, 6-[3-(4-methylpyridin-3-yl)-1,2,4-oxadiazol-5-yl]-1-(propan-2-yl)-1H-1,2,3-benzotriazole]
Emax [1]: < 75% | hS1P1 cAMP pEC50 [1, 3]: <6.5 | Emax [2]: < 75% | hS1P1 B-arrestin2 pEC50 [2, 4]: <5

— patent US11912693B2, “Compounds for modulating S1P1 activity and methods of using the same” (TREVENA, INC., priority 2017, dated 2024)
